Assay: recombinant UMI read abundance after kanamycin selection (control-corrected) (log10(CPM+1)); higher = more efficient recombination; extreme values may be limits of the assay; sequences stand for … in AGTGCAGAGAAAATCGGCCAGTTTTCTCTGCCTGCAGTCCGCATGCCGTGGGACCCCTTGGGTTCTAACCTGTTGCCTAGATTTATGCAGCGGACTGCCTTTCTCCCAAAGTGATAAACCGG…AGGTTGGTTTCACT; site = the 11-nt donor
Procedure, shortened: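 Two replicates each of selected and unselected plating were used in this pooled Escherichia coli screen of donor and donor-binding-loop pairs for the IS621 bridge recombinase. Selection was with IPTG (0.07 mM) and kanamycin. Counts of recombinant UMIs, amplified across the donor–target junction, were converted to CPM, averaged, scaled by control-derived factors and reported as log10(CPM+1).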
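Further: IS621 bridge recombinase in Escherichia coli cells against a fixed T5 target plasmid.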

Recombinant UMI read abundance (log10), 1.05:
CCGTTGACATGGACCGGTTTTCCCGGTAATCCGTATTTGCT (site CCGTTGACTAG)

Recombinant UMI read abundance (log10), 0.00762:
CCGTTAGCATGGACCGGTTTTCCCGGTAATCCGTATTTGTG (site TCGTTAGCTCA)

Recombinant UMI read abundance (log10), 0:
CCGTTAGCATGGACCGGTTTTCCCGGTAATCCGTATTTGTG (site GCGTTAGCTCA), CCGTTCTCATGGACCGGTTTTCCCGGTAATCCGTATTTGGG (site CCCTTCTCTCC), CCGTTCTCATGGACCGGTTTTCCCGGTAATCCGTATTTGGG (site CCGTTCTCTCC), CCGTTCTCATGGACCGGTTTTCCCGGTAATCCGTATTTGGG (site CCTTTCTCTCC), CCGTTGACATGGACCGGTTTTCCCGGTAATCCGTATTTGCT (site CCGTTAACTAG), CCGTTGACATGGACCGGTTTTCCCGGTAATCCGTATTTGCT (site CCGTTCACTAG), CCGTTGACATGGACCGGTTTTCCCGGTAATCCGTATTTGCT (site CCGTTTACTAG), CCGTTTACATGGACCGGTTTTCCCGGTAATCCGTATTTGCC (site CCGTTTACTAG), CCGTTTACATGGACCGGTTTTCCCGGTAATCCGTATTTGCC (site CCGTTTACTCG), CCGTTTACATGGACCGGTTTTCCCGGTAATCCGTATTTGCC (site CCGTTTACTGG), CCGTTTACATGGACCGGTTTTCCCGGTAATCCGTATTTGCC (site CCGTTTACTTG), CCGTTTACATGGACCGGTTTTCCCGGTAATCCGTATTTGTT (site CCGTTTACTAC), CCGTTTACATGGACCGGTTTTCCCGGTAATCCGTATTTGTT (site CCGTTTACTAG), CCGTTTACATGGACCGGTTTTCCCGGTAATCCGTATTTGTT (site CCGTTTACTAT), CCGTTTGCATGGACCGGTTTTCCCGGTAATCCGTATTTGCT (site CCGTTTACTAG), CCGTTTGCATGGACCGGTTTTCCCGGTAATCCGTATTTGCT (site CCGTTTCCTAG), CCGTTTGCATGGACCGGTTTTCCCGGTAATCCGTATTTGCT (site CCGTTTGCTAG), CCGTTTGCATGGACCGGTTTTCCCGGTAATCCGTATTTGCT (site CCGTTTTCTAG), CCTAAACCATGGACCGGTTTTCCCGGTAATCCGTATTTGAT (site CCTAAAACTAT), CCTAAACCATGGACCGGTTTTCCCGGTAATCCGTATTTGAT (site CCTAAACCTAT), CCTAAACCATGGACCGGTTTTCCCGGTAATCCGTATTTGAT (site CCTAAAGCTAT), CCTAAACCATGGACCGGTTTTCCCGGTAATCCGTATTTGAT (site CCTAAATCTAT), CCTAAAGCATGGACCGGTTTTCCCGGTAATCCGTATTTGAC (site CCTAAAGCTAT), CCTAAAGCATGGACCGGTTTTCCCGGTAATCCGTATTTGAC (site CCTAAAGCTGT), CCTAAATCATGGACCGGTTTTCCCGGTAATCCGTATTTGAT (site CCTAAAACTAT), CCTAAATCATGGACCGGTTTTCCCGGTAATCCGTATTTGAT (site CCTAAACCTAT), CCTAAATCATGGACCGGTTTTCCCGGTAATCCGTATTTGAT (site CCTAAAGCTAT)

Recombinant UMI read abundance (log10), 0.164:
CCGTTAGCATGGACCGGTTTTCCCGGTAATCCGTATTTGTG (site CTGTTAGCTCA)

Recombinant UMI read abundance (log10), 0.48:
CCGTTTGCATGGACCGGTTTTCCCGGTAATCCGTATTTGGT (site CCGTTTGCTAC)

Recombinant UMI read abundance (log10), 0.827:
CCGTTCGCATGGACCGGTTTTCCCGGTAATCCGTATTTGTA (site CCGTTCGCTTA)

Recombinant UMI read abundance (log10), 0.00302:
CCTAAAGCATGGACCGGTTTTCCCGGTAATCCGTATTTGAC (site CCTAAAGCTCT)

Recombinant UMI read abundance (log10), 0.0124:
CCTAAAGCATGGACCGGTTTTCCCGGTAATCCGTATTTGAC (site CCTAAAGCTTT)

Recombinant UMI read abundance (log10), 0.00669:
CCTAAATCATGGACCGGTTTTCCCGGTAATCCGTATTTGAT (site CCTAAATCTAT)

Recombinant UMI read abundance (log10), 0.00249:
CCGTTCTCATGGACCGGTTTTCCCGGTAATCCGTATTTGGG (site CCATTCTCTCC)

Recombinant UMI read abundance (log10), 0.175:
CCGTTTACATGGACCGGTTTTCCCGGTAATCCGTATTTGTT (site CCGTTTACTAA)

Source: the supplement of paper PMC11208160
